Assay results reported in the supplement of paper PMC10307832.

Key:
Assay in all cases: relative viability (nuclei count vs DMSO), 5 days (fraction); higher = more cells survive
EMC-BAC-2 = tested on: EMC-BAC-2
Summary of the method: (§1)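 Relative viability divides the nuclei count in treated wells by that in vehicle wells. Lung cancer cell lines were seeded in 1536-well plates, dosed by pin tool the next day, and fixed and stained after 5 days in one step with final 0.05% Triton X-100, 1% formaldehyde and 1 ug/ml Hoechst. Dosing was a single drug or a fixed anchor-drug dose plus five library-drug doses (not always all listed) in √10 steps, and values are medians of duplicate plates imaged at 4×.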

EPLC-272H = tested on: EPLC-272H
Summary of the method: as §1

H3255 = tested on: H3255
Summary of the method: as §1

HOP-62 = tested on: HOP-62
Summary of the method: as §1

LCLC-97TM1 = tested on: LCLC-97TM1
Summary of the method: as §1

LXF-289 = tested on: LXF-289
Summary of the method: as §1

NCI-H1650 = tested on: NCI-H1650
Summary of the method: as §1

NCI-H1915 = tested on: NCI-H1915
Summary of the method: as §1

NCI-H1993 = tested on: NCI-H1993
Summary of the method: as §1

NCI-H2009 = tested on: NCI-H2009
Summary of the method: as §1

NCI-H2023 = tested on: NCI-H2023
Summary of the method: as §1

NCI-H2085 = tested on: NCI-H2085
Summary of the method: as §1

NCI-H2126 = tested on: NCI-H2126
Summary of the method: as §1

NCI-H2342 = tested on: NCI-H2342
Summary of the method: as §1

NCI-H2347 = tested on: NCI-H2347
Summary of the method: as §1

NCI-H322M = tested on: NCI-H322M
Summary of the method: as §1

NCI-H647 = tested on: NCI-H647
Summary of the method: as §1

NCI-H661 = tested on: NCI-H661
Summary of the method: as §1

NCI-H727 = tested on: NCI-H727
Summary of the method: as §1

PC-14 = tested on: PC-14
Summary of the method: as §1

SK-LU-1 = tested on: SK-LU-1
Summary of the method: as §1

SW 1573 = tested on: SW 1573
Summary of the method: as §1

Work on `NC(=O)Nc1cc(-c2cccc(F)c2)sc1C(=O)N[C@H]1CCCNC1` [AZD7762] + Cc1cc(Nc2cc(N3CCN(C)CC3)nc(Sc3ccc(NC(=O)C4CC4)cc3)n2)n[nH]1 [Tozasertib] (partner 0.1 µM) yielded a relative viability (EMC-BAC-2; first compound 0.01 µM) of 0.295, a relative viability (EMC-BAC-2; first compound 0.03162 µM) of 0.302 and a relative viability (EMC-BAC-2; first compound 0.1 µM) of 0.326. For the same compound, the relative viability (EMC-BAC-2; first compound 0.3162 µM) was 0.321, the relative viability (EMC-BAC-2; first compound 1 µM) was 0.282 and the relative viability (EPLC-272H; first compound 0.01 µM) was 0.274. The relative viability (EPLC-272H; first compound 0.03162 µM) was 0.242, the relative viability (EPLC-272H; first compound 0.1 µM) was 0.248 and the relative viability (EPLC-272H; first compound 0.3162 µM) was 0.28. The relative viability (EPLC-272H; first compound 1 µM) was 0.0908, the relative viability (H3255; first compound 0.01 µM) was 0.704 and the relative viability (H3255; first compound 0.03162 µM) was 0.595. For the same compound, the relative viability (H3255; first compound 0.1 µM) was 0.677, the relative viability (H3255; first compound 0.3162 µM) was 0.591 and the relative viability (H3255; first compound 1 µM) was 0.576. For the same compound, the relative viability (HOP-62; first compound 0.01 µM) was 0.439, the relative viability (HOP-62; first compound 0.03162 µM) was 0.376 and the relative viability (HOP-62; first compound 0.1 µM) was 0.378. It also gave a relative viability (HOP-62; first compound 0.3162 µM) of 0.339, a relative viability (HOP-62; first compound 1 µM) of 0.219 and a relative viability (LCLC-97TM1; first compound 0.01 µM) of 0.325. It also gave a relative viability (LCLC-97TM1; first compound 0.03162 µM) of 0.263, a relative viability (LCLC-97TM1; first compound 0.1 µM) of 0.225 and a relative viability (LCLC-97TM1; first compound 0.3162 µM) of 0.398. The relative viability (LCLC-97TM1; first compound 1 µM) was 0.292, the relative viability (LXF-289; first compound 0.01 µM) was 0.215 and the relative viability (LXF-289; first compound 0.03162 µM) was 0.203. It also gave a relative viability (LXF-289; first compound 0.1 µM) of 0.196, a relative viability (LXF-289; first compound 0.3162 µM) of 0.174 and a relative viability (LXF-289; first compound 1 µM) of 0.188. For the same compound, the relative viability (NCI-H1650; first compound 0.01 µM) was 0.482, the relative viability (NCI-H1650; first compound 0.03162 µM) was 0.467 and the relative viability (NCI-H1650; first compound 0.1 µM) was 0.424. It also gave a relative viability (NCI-H1650; first compound 0.3162 µM) of 0.207, a relative viability (NCI-H1650; first compound 1 µM) of 0.118 and a relative viability (NCI-H1915; first compound 0.01 µM) of 0.471. The relative viability (NCI-H1915; first compound 0.03162 µM) was 0.497, the relative viability (NCI-H1915; first compound 0.1 µM) was 0.483 and the relative viability (NCI-H1915; first compound 0.3162 µM) was 0.415. For the same compound, the relative viability (NCI-H1915; first compound 1 µM) was 0.368, the relative viability (NCI-H1993; first compound 0.01 µM) was 0.654 and the relative viability (NCI-H1993; first compound 0.03162 µM) was 0.579. The relative viability (NCI-H1993; first compound 0.1 µM) was 0.628, the relative viability (NCI-H1993; first compound 0.3162 µM) was 0.641 and the relative viability (NCI-H1993; first compound 1 µM) was 0.547. It also gave a relative viability (NCI-H2009; first compound 0.01 µM) of 0.857, a relative viability (NCI-H2009; first compound 0.03162 µM) of 0.703 and a relative viability (NCI-H2009; first compound 0.1 µM) of 0.688. It also gave a relative viability (NCI-H2009; first compound 0.3162 µM) of 0.543, a relative viability (NCI-H2009; first compound 1 µM) of 0.384 and a relative viability (NCI-H2023; first compound 0.01 µM) of 0.374. It also gave a relative viability (NCI-H2023; first compound 0.03162 µM) of 0.307, a relative viability (NCI-H2023; first compound 0.1 µM) of 0.227 and a relative viability (NCI-H2023; first compound 0.3162 µM) of 0.105. The relative viability (NCI-H2023; first compound 1 µM) was 0.0751, the relative viability (NCI-H2085; first compound 0.01 µM) was 0.875 and the relative viability (NCI-H2085; first compound 0.03162 µM) was 0.769. It also gave a relative viability (NCI-H2085; first compound 0.1 µM) of 0.807, a relative viability (NCI-H2085; first compound 0.3162 µM) of 0.729 and a relative viability (NCI-H2085; first compound 1 µM) of 0.713. It also gave a relative viability (NCI-H2126; first compound 0.01 µM) of 0.889, a relative viability (NCI-H2126; first compound 0.03162 µM) of 0.888 and a relative viability (NCI-H2126; first compound 0.1 µM) of 0.937. It also gave a relative viability (NCI-H2126; first compound 0.3162 µM) of 0.831, a relative viability (NCI-H2126; first compound 1 µM) of 0.454 and a relative viability (NCI-H2342; first compound 0.01 µM) of 0.489. The relative viability (NCI-H2342; first compound 0.03162 µM) was 0.501, the relative viability (NCI-H2342; first compound 0.1 µM) was 0.502 and the relative viability (NCI-H2342; first compound 0.3162 µM) was 0.455. It also gave a relative viability (NCI-H2342; first compound 1 µM) of 0.487, a relative viability (NCI-H2347; first compound 0.01 µM) of 0.62 and a relative viability (NCI-H2347; first compound 0.03162 µM) of 0.551. For the same compound, the relative viability (NCI-H2347; first compound 0.1 µM) was 0.585, the relative viability (NCI-H2347; first compound 0.3162 µM) was 0.567 and the relative viability (NCI-H2347; first compound 1 µM) was 0.521. It also gave a relative viability (NCI-H322M; first compound 0.01 µM) of 0.47, a relative viability (NCI-H322M; first compound 0.03162 µM) of 0.515 and a relative viability (NCI-H322M; first compound 0.1 µM) of 0.514. It also gave a relative viability (NCI-H322M; first compound 0.3162 µM) of 0.307, a relative viability (NCI-H322M; first compound 1 µM) of 0.305 and a relative viability (NCI-H647; first compound 0.01 µM) of 0.379. It also gave a relative viability (NCI-H647; first compound 0.03162 µM) of 0.218, a relative viability (NCI-H647; first compound 0.1 µM) of 0.314 and a relative viability (NCI-H647; first compound 0.3162 µM) of 0.254. It also gave a relative viability (NCI-H647; first compound 1 µM) of 0.0439, a relative viability (NCI-H661; first compound 0.01 µM) of 0.357 and a relative viability (NCI-H661; first compound 0.03162 µM) of 0.368. For the same compound, the relative viability (NCI-H661; first compound 0.1 µM) was 0.372, the relative viability (NCI-H661; first compound 0.3162 µM) was 0.432 and the relative viability (NCI-H661; first compound 1 µM) was 0.396. The relative viability (NCI-H727; first compound 0.01 µM) was 0.662, the relative viability (NCI-H727; first compound 0.03162 µM) was 0.619 and the relative viability (NCI-H727; first compound 0.1 µM) was 0.525. For the same compound, the relative viability (NCI-H727; first compound 0.3162 µM) was 0.596, the relative viability (NCI-H727; first compound 1 µM) was 0.35 and the relative viability (PC-14; first compound 0.01 µM) was 0.69. It also gave a relative viability (PC-14; first compound 0.03162 µM) of 0.544, a relative viability (PC-14; first compound 0.1 µM) of 0.555 and a relative viability (PC-14; first compound 0.3162 µM) of 0.511. The relative viability (PC-14; first compound 1 µM) was 0.269, the relative viability (SK-LU-1; first compound 0.01 µM) was 0.374 and the relative viability (SK-LU-1; first compound 0.03162 µM) was 0.246. For the same compound, the relative viability (SK-LU-1; first compound 0.1 µM) was 0.17, the relative viability (SK-LU-1; first compound 0.3162 µM) was 0.128 and the relative viability (SK-LU-1; first compound 1 µM) was 0.142. The relative viability (SW 1573; first compound 0.01 µM) was 0.225, the relative viability (SW 1573; first compound 0.03162 µM) was 0.186 and the relative viability (SW 1573; first compound 0.1 µM) was 0.153. For the same compound, the relative viability (SW 1573; first compound 0.3162 µM) was 0.15 and the relative viability (SW 1573; first compound 1 µM) was 0.117.
